According to patent publication US9260710B2, “Photocleavable linker” (City of Hope, priority 2012, dated 2016):

Key:
LC8 and FKBP-LC8TRAP = biological target: T1, LC8 and FKBP-LC8TRAP (Homo sapiens, UniProt P62942, F37V); experiment: Native PAGE of LC8-LC8TRAP complex formation induced by dimerizer; format: biochemical; conditions: for complex formation between LC8 and FKBP-LC8TRAP (new band): native PAGE, addition of dimerization agent
T1 construct: made in house; host or cells: bacteria (pET21D vector)
T1 sequence (P62942 with tags, fused parts or gaps F37V): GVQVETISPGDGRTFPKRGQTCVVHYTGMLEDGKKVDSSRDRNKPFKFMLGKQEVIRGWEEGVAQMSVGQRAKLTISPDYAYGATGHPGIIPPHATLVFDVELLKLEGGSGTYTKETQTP
Protocol: (§1) Native PAGE. Each of, LC8 and FKBP-LC8TRAP, were mixed in a molar concentration of 50 μM and 1.2 molar excess (60 μM) of AP20187 or 2.4 molar excess (120 μM) of PhAP20187. The mix were incubated at 4° C. for 5 min. Native PAGE analysis was performed at 16° C. using 8-25% gradient gels on the PHASTSYSTEM™ (GE Biosciences).
We then tested whether this replacement of the amine linker with the o-nitrobenzyl moiety affected the dimerization of FKBP in vitro. We used native PAGE to follow the formation of the LC8-LC8 molecular trap (LC8TRAP) complex induced by addition of PhAP. See e.g., Varma et al., 2010 (Id.) Upon the addition of PhAP to an equimolar mixture of LC8 and LC8TRAP, we observed a new band that migrated the same distance as the band produced by addition of AP (FIG. 2A).
Native PAGE analysis was conducted for stoichiometric complex formation between LC8 and FKBP-LC8TRAP on addition of dimerization agent AP.

LC8-LC8TRAP complex = experiment: UV light (350 nm) disruption of dimerizer-LC8-LC8TRAP complex, native PAGE; format: biochemical; conditions: UV 350 nm
Protocol: as §1
Next, we characterized how well UV light could disrupt the PhAP-LC8-LC8TRAP complex in vitro. We generated the PhAP-LC8-LC8TRAP and AP-LC8-LC8TRAP complexes and exposed each to UV light (350 nm). Native PAGE indicated loss of the band corresponding to the PhAP-LC8-LC8TRAP complex and an increase in intensity of bands corresponding to the individual components after UV induction. The band corresponding to the PhAP-LC8-LC8TRAP complex was less intense in samples that received a five min exposure to UV light and undetectable after a 10 min exposure. On the other hand, the LC8-LC8TRAP complex induced by the non-photocleavable AP persisted, even after a 30 min exposure to UV light (FIG. 2C).

[1] = system: EGFP-FKBP-LC8TRAP transfected COS1 cells; experiment: Reversibility of endosome dispersion after UV induction; format: cell-based; conditions: for Percentage of endosomes dispersion (recovery): UV 10 min
Protocol: Cell Culture. COS1 cells were cultured in DMEM (CELLGRO®) supplemented with 10% fetal bovine/calf serum (Omega Scientific). Transfection was performed in 80-90% confluent 24-h cultures of COS1 cells using LIPOFECTAMINE™ 2000 (Invitrogen) and OPTI-MEM™ media (GIBCO®) according to the manufacturer's recommendations. Various concentrations (0 nM to 1000 nM) of AP (Ariad Pharmaceuticals Inc.) and PhAP (as described herein) were added to each experimental wells 24 hr. post transfection and incubated for different periods of time before analyzing the cells. For reversibility of endosome dispersion studies, 500 nM of AP/PhAP were used. In each case, the cells were washed well with PBS and supplemented with fresh media before inducing with UV light (10 mins., 4 W, 350 nm) and allowed to recover for various time period at 37° C., before analysis.
Immunostaining and Microscopy. For immunostaining, transiently transfected COS1 cells were fixed with 3.7% formaldehyde at room temperature for 10 min, and subsequent immunostaining was performed as described previously^[2]. Briefly, COS 1 cells grown on 25-mm coverslips were washed 3× with PBS, treated with 3.7% formaldehyde (Sigma) in PBS for fixation, and permeabilized in 0.5% Triton X-100 (Sigma) in PBS at room temperature for 10 min. Cells were then incubated with blocking buffer containing 4% skimmed milk (fat free) and 0.5% Triton X-100 in PBS. Anti-EEA1 monoclonal antibody was added to label early endosome marker protein at a dilution of 1:100 in the same buffer for 30 min at RT, and the coverslips were washed and incubated with rhodamine-conjugated donkey anti-mouse secondary antibody (1:100). After washing, the coverslips were mounted on slides to visualize the trapping effects. Samples were viewed using an Olympus IX81 automated inverted microscope equipped with water immersion 60× objective. The level of dispersion was quantified by counting 100 cells per coverslip. Each experiment was performed in triplicate. Images were obtained using a Spot RT Slider high-resolution cooled CCD camera equipped to IX81 microscope and Image-Pro software. Images were cropped and processed using Adobe Photoshop 7.0 (Adobe Systems).
UV induction. For UV-induction and recovery of endosome studies, cells were washed with PBS and fresh media were added after drug treatment. The washed cells were then treated with a hand held UV-lamp (365 nm/4 watt) for 10 mins. The cells were then left to recover at 37° C. for varying period of time before staining and analysis.
Next, we characterized the reversibility of endosome dispersion in COS1 cells UV-induced cleavage of PhAP. In these experiments, transiently transfected cells were incubated with PhAP (500 nM) or AP for times ranging from 0-2 h, after which cells were washed rapidly, replenished with fresh media, and then exposed to UV light (10 min, 4 W, 350 nm). The cells were then fixed at 0, 1, 2, 4, and 8 h post UV radiation and the endosomes imaged using fluorescence microscopy at 60× magnification. We observed a gradual recovery of endosomes to the perinuclear region during the first 4 h after UV exposure (44.1±2.3%), with a slight increase in dispersion after 8 h (48.9±3.9%), for cells treated with PhAP (FIG. 3A).

[2] = 30 mins. treatment (500 nM), recovery 0 h
[3] = 30 mins. treatment (500 nM), recovery 1 h
[4] = 30 mins. treatment (500 nM), recovery 2 h
[5] = 30 mins. treatment (500 nM), recovery 4 h
[6] = 30 mins. treatment (500 nM), recovery 8 h
[7] = 1 hr. treatment (500 nM), recovery 0 h
[8] = 1 hr. treatment (500 nM), recovery 1 h
[9] = 1 hr. treatment (500 nM), recovery 2 h
[10] = 1 hr. treatment (500 nM), recovery 4 h
[11] = 1 hr. treatment (500 nM), recovery 8 h
[12] = 2 hr. treatment (500 nM), recovery 0 h
[13] = 2 hr. treatment (500 nM), recovery 1 h
[14] = 2 hr. treatment (500 nM), recovery 2 h
[15] = 2 hr. treatment (500 nM), recovery 4 h
[16] = 2 hr. treatment (500 nM), recovery 8 h

| SMILES | complex formation between LC8 and FKBP-LC8TRAP (new band) (LC8 and FKBP-LC8TRAP) | Percentage of endosomes dispersion (recovery) [1, 2] | Percentage of endosomes dispersion (recovery) [1, 3] | Percentage of endosomes dispersion (recovery) [1, 4] | Percentage of endosomes dispersion (recovery) [1, 5] | Percentage of endosomes dispersion (recovery) [1, 6] | Percentage of endosomes dispersion (recovery) [1, 7] | Percentage of endosomes dispersion (recovery) [1, 8] | Percentage of endosomes dispersion (recovery) [1, 9] | Percentage of endosomes dispersion (recovery) [1, 10] | Percentage of endosomes dispersion (recovery) [1, 11] | Percentage of endosomes dispersion (recovery) [1, 12] | Percentage of endosomes dispersion (recovery) [1, 13] | Percentage of endosomes dispersion (recovery) [1, 14] | Percentage of endosomes dispersion (recovery) [1, 15] | Percentage of endosomes dispersion (recovery) [1, 16] | also measured |
| --- | --- | --- | --- | --- | --- | --- | --- | --- | --- | --- | --- | --- | --- | --- | --- | --- | --- |
| CCC(C(=O)N1CCCCC1C(=O)OC(CCc1ccc(OC)c(OC)c1)c1cccc(OCC(=O)NCC(CNC(=O)COc2cccc(C(CCc3ccc(OC)c(OC)c3)OC(=O)C3CCCCN3C(=O)C(CC)c3cc(OC)c(OC)c(OC)c3)c2)CN(C)C)c1)c1cc(OC)c(OC)c(OC)c1 (centres unmarked) [AP, AP20187] | produces a new band | 51.8 ± 4.4% | 64.7 ± 2.0% | 68.3 ± 3.7% | 69.8 ± 4.3% | 67.9 ± 1.9% | 58.0 ± 4.3% | 71.2 ± 2.5% | 69.7 ± 3.6% | 70.4 ± 3.1% | 70.8 ± 1.9% | 69.1 ± 3.2% | 68.9 ± 3.2% | 70.7 ± 4.0% | 69.5 ± 1.9% | 70.3 ± 3.3% | band of dimerizer-LC8-LC8TRAP complex after UV exposure (LC8-LC8TRAP complex; 30 min exposure): persisted; endosome dispersion after UV exposure, all time points ([1]; 0-8 h post UV, with or without UV exposure): remained dispersed at all time points evaluated; saturation point of endosome dispersion ([1]; 30 minutes or 1 hr treatment followed by UV exposure): ~70% |
| CC[C@H](C(=O)N1CCCC[C@H]1C(=O)O[C@H](CCc1ccc(OC)c(OC)c1)c1cccc(OCC(=O)OC(C)c2ccc(C(C)OC(=O)COc3cccc([C@@H](CCc4ccc(OC)c(OC)c4)OC(=O)[C@@H]4CCCCN4C(=O)[C@@H](CC)c4cc(OC)c(OC)c(OC)c4)c3)c([N+](=O)[O-])c2)c1)c1cc(OC)c(OC)c(OC)c1 (some centres unmarked) [PhAP] | can also form complex between LC8 and FKBP-LC8TRAP efficiently | 53.2±2.4% | 53.7 ± 4.0% | 50.8 ± 2.3% | 48.0 ± 0.5% | 49.3 ± 6.7% | 57.8±8.0% | 56.4 ± 1.7% | 55.7 ± 8.8% | 46.7 ± 0.6% | 48.1 ± 2.0% | 69.5 ± 2.4% | 66.3 ± 3.2% | 57.6 ± 2.6% | 44.1±2.3% | 48.9±3.9% | concentration required to produce a complex band of the same intensity as the sample treated with AP (LC8 and FKBP-LC8TRAP; equimolar mixture of LC8 and LC8TRAP, relative to AP): 2 ×; band of dimerizer-LC8-LC8TRAP complex after UV exposure (LC8-LC8TRAP complex; 10 min exposure): undetectable; band of dimerizer-LC8-LC8TRAP complex after UV exposure (LC8-LC8TRAP complex; five min exposure): less intense |
